Laboratory results taken from ChEMBL document CHEMBL1201862, “PubChem BioAssay data set” (2004).
Values joined by “and” are separate entries in the source; they are usually repeats but may differ in a detail not shown here. Equal values may be shown once.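 Compound exposure: 48 hours, 5 concentrations, 96-well plates. Here, GI50 denotes the concentration required for 50% inhibition of growth.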 Active and inactive are the calls of the source. Rule as the data show it: active = GI50 up to about 1.1 µM and inactive = higher.

Key:
Test in all cases: NCI tumour cell line growth inhibition, 48 h
[1] = tested on: PC-3
[2] = tested on: K562
[3] = tested on: U-251
[4] = tested on: SNB-75
[5] = tested on: NCI-H23
[6] = tested on: CCRF-CEM
[7] = tested on: DU-145
[8] = tested on: SK-MEL-5
[9] = tested on: HL-60
[10] = tested on: SN12C
[11] = tested on: MDA-MB-435
[12] = tested on: CAKI-1
[13] = tested on: UACC-257
[14] = tested on: A549
[15] = tested on: MDA-N
[16] = tested on: NCI/ADR-RES
[17] = tested on: OVCAR-4
[18] = tested on: RPMI-8226
[19] = tested on: SF-539
[20] = tested on: HOP-92

| Structure (SMILES) | GI50 [1] | GI50 [2] | GI50 [3] | GI50 [4] | GI50 [5] | GI50 [6] | GI50 [7] | GI50 [8] | GI50 [9] | GI50 [10] | GI50 [11] | GI50 [12] | GI50 [13] | GI50 [14] | GI50 [15] | GI50 [16] | GI50 [17] | GI50 [18] | GI50 [19] | GI50 [20] |
| --- | --- | --- | --- | --- | --- | --- | --- | --- | --- | --- | --- | --- | --- | --- | --- | --- | --- | --- | --- | --- |
| Nc1nc(SCc2ccccn2)c2ncn(C3CCCC3)c2n1 | > 100 µM (inactive) | > 100 µM (inactive) | > 100 µM (inactive) | 40.5 µM (inactive) | > 100 µM (inactive) | > 100 µM (inactive) | > 100 µM (inactive) | > 100 µM (inactive) | 97.3 µM (inactive) | > 100 µM (inactive) | > 100 µM (inactive) | > 100 µM (inactive) | > 100 µM (inactive) | > 100 µM (inactive) | > 100 µM (inactive) | > 100 µM (inactive) | > 100 µM (inactive) | > 100 µM (inactive) |  |  |
| COc1ccc2c3c1OC1C(OC)(OC)CC4(C=C2)CN(C)CCC314 (stereo unspecified) |  | 41.9 µM (inactive) | > 100 µM (inactive) | > 100 µM (inactive) | > 100 µM (inactive) | 30.4 µM (inactive) | > 100 µM (inactive) | > 100 µM (inactive) | 20.3 µM (inactive) | > 100 µM (inactive) | > 100 µM (inactive) | > 100 µM (inactive) | > 100 µM (inactive) | > 100 µM (inactive) | > 100 µM (inactive) | > 100 µM (inactive) | > 100 µM (inactive) | > 100 µM (inactive) | > 100 µM (inactive) |  |
| CCCC1(CCC)c2cc(/C=N\O)ccc2-c2ccc(-c3ccc(C(C)(C)C)cc3)cc21 | 59.6 µM (inactive) | 45.7 µM (inactive) | > 10 µM (inactive) | 67.1 µM (inactive) | 48.3 µM (inactive) | 29.2 µM (inactive) | > 100 µM (inactive) | 80.4 µM (inactive) | 20.7 µM (inactive) | 23.1 µM (inactive) |  | > 100 µM (inactive) | 93.1 µM (inactive) | 53.7 µM (inactive) | 57.3 µM (inactive) | 53.8 µM (inactive) | > 100 µM (inactive) | 33.7 µM (inactive) | > 100 µM (inactive) | 64.9 µM (inactive) |
| Cc1nn2c(C(=O)N/N=C/c3ccccc3O)c(C)nc2s1 |  | > 100 µM (inactive) | 38 µM (inactive) | > 100 µM (inactive) | > 100 µM (inactive) | 41.2 µM (inactive) | > 100 µM (inactive) | 60.3 µM (inactive) | 31.8 µM (inactive) | 73.1 µM (inactive) | > 100 µM (inactive) | > 100 µM (inactive) | > 100 µM (inactive) | > 100 µM (inactive) | > 100 µM (inactive) | 61.4 µM (inactive) | > 100 µM (inactive) |  | > 100 µM (inactive) | > 100 µM (inactive) |
| Cc1nc2ccc(Cl)cc2c2c1CCS2 | 36.6 µM (inactive) | 40.9 µM (inactive) | > 100 µM (inactive) |  | 75 µM (inactive) | 46 µM (inactive) | 91.2 µM (inactive) | 27.6 µM (inactive) | 27.2 µM (inactive) | 42 µM (inactive) | 68.5 µM (inactive) | 55.2 µM (inactive) | 97.7 µM (inactive) | 67 µM (inactive) | > 100 µM (inactive) | 51.4 µM (inactive) | 26.8 µM (inactive) | 16.3 µM (inactive) | 87.5 µM (inactive) |  |
| COC1=CC2=NCCc3n[nH]c(c32)C1=O | 19.5 µM (inactive) | 0.0545 µM (active) | 16.7 µM (inactive) |  | 14.4 µM (inactive) |  |  | 18.3 µM (inactive) | 0.0482 µM (active) | 13.7 µM (inactive) | 11.5 µM (inactive) |  | 15.6 µM (inactive) | 24.3 µM (inactive) | 10.9 µM (inactive) | 29.1 µM (inactive) |  | 11.5 µM (inactive) | 17.3 µM (inactive) |  |
| CCCCOCn1c(=O)[nH]c(=O)c2ccccc21 |  | > 100 µM (inactive) | > 100 µM (inactive) | 13.3 µM (inactive) |  | > 100 µM (inactive) | > 100 µM (inactive) | 54.1 µM (inactive) | 68.4 µM (inactive) | > 100 µM (inactive) | > 100 µM (inactive) | > 100 µM (inactive) | 78.7 µM (inactive) | > 100 µM (inactive) | > 100 µM (inactive) | 22.8 µM (inactive) | 35.7 µM (inactive) |  | > 100 µM (inactive) | > 100 µM (inactive) |
| Cc1ccc(N2C3=C(CC4=C2CC(C)(C)CC4=O)C(=O)CC(C)(C)C3)cc1 | > 100 µM (inactive) | > 100 µM (inactive) | > 100 µM (inactive) | 27.6 µM (inactive) | > 100 µM (inactive) | > 100 µM (inactive) | > 100 µM (inactive) | > 100 µM (inactive) | > 100 µM (inactive) | > 100 µM (inactive) | > 100 µM (inactive) | > 100 µM (inactive) | > 100 µM (inactive) | > 100 µM (inactive) | > 100 µM (inactive) | > 100 µM (inactive) | > 100 µM (inactive) | > 100 µM (inactive) | > 100 µM (inactive) |  |
| CCN(CC)CCN1CCN=C2c3cc(OC)ccc3Nc3c([N+](=O)[O-])ccc1c32 | 0.697 µM (active) | 0.575 µM (active) |  | 1.95 µM (inactive) | 1.1 µM (active) | 0.388 µM (active) | 2.8 µM (inactive) | 1.55 µM (inactive) | 0.519 µM (active) | 0.667 µM (active) | 1.28 µM (inactive) | 1.93 µM (inactive) | 2.59 µM (inactive) | 1.24 µM (inactive) | 1.04 µM (active) |  | 1.07 µM (active) | 0.64 µM (active) |  | 2.21 µM (inactive) |
| CCOC1CCN(C(=O)c2ccccc2)O1 (stereo unspecified) | > 10 µM (inactive) | > 10 µM (inactive) |  | > 10 µM (inactive) | > 10 µM (inactive) | > 10 µM (inactive) | > 10 µM (inactive) | > 10 µM (inactive) | > 10 µM (inactive) | > 10 µM (inactive) | > 10 µM (inactive) | > 10 µM (inactive) | > 10 µM (inactive) | > 10 µM (inactive) | > 10 µM (inactive) | > 10 µM (inactive) | > 10 µM (inactive) | > 10 µM (inactive) | > 10 µM (inactive) |  |
| CNC(=O)NS(=O)(=O)c1ccc(C)cc1.NS(=O)O | > 100 µM (inactive) | > 100 µM (inactive) | > 100 µM (inactive) | > 100 µM (inactive) | > 100 µM (inactive) | > 100 µM (inactive) | > 100 µM (inactive) | > 100 µM (inactive) | > 100 µM (inactive) | > 100 µM (inactive) |  |  | > 100 µM (inactive) | > 100 µM (inactive) | > 100 µM (inactive) | > 100 µM (inactive) | > 100 µM (inactive) | > 100 µM (inactive) | > 100 µM (inactive) | > 100 µM (inactive) |
| COc1cc(-c2oc3c(OC)c(OC)cc(O)c3c(=O)c2OC)ccc1O [TERNATIN] | 20.4 µM (inactive) | 27.5 µM (inactive) |  |  |  | 3.38 µM (inactive) and 2.42 µM (inactive) | 7.43 µM (inactive) |  | 1.24 µM (inactive) |  | 10.6 µM (inactive) | 7 µM (inactive) | > 100 µM (inactive) | 14.9 µM (inactive) | 15.2 µM (inactive) | 38.8 µM (inactive) |  |  | 6.18 µM (inactive) and 7.5 µM (inactive) |  |
